Measured values: patent US20240391931A1 (Bristol-Myers Squibb Company, priority 2021, published 2024)

Columns and labels:
[1] = target: T1, HER2 wildtype (WT) protein (Homo sapiens, UniProt P04626); experiment: HER2 signaling (pHER2 Tyr1248/total HER2 MSD) in BT474 cells; format: cell-based; settings: 1.5 hr compound, 1% FBS
T1 construct: BT474 and N87 cell lines which endogenously overexpress the HER2 wildtype (WT) protein; endogenous in cells; host or cells: BT474, N87
Method in brief: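 BT474, N87 (HER2 WT) and NCI-H1781 (HER2 G776delinsVC) cells were treated for 1.5 h at 37° C in 1% FBS medium with compound at 0.0005–1.1 μM. pHER2 Tyr1248 was measured by MSD on whole-cell lysates and normalized to total HER2 as % DMSO. EC50 came from a variable-slope sigmoidal fit.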

HER2 WT = target: T2, HER2 WT (Homo sapiens, UniProt P04626); experiment: Enzymatic assay HER2 WT (method a); format: biochemical; settings: [HER2 WT]=12.5 nM, [ATP]=25 μM, [Peptide 22]=1 μM
T2 construct: purchased ProQinase, Freiburg, Germany ERBB2 0108-0000-1
T2 sequence (P04626 23-1255): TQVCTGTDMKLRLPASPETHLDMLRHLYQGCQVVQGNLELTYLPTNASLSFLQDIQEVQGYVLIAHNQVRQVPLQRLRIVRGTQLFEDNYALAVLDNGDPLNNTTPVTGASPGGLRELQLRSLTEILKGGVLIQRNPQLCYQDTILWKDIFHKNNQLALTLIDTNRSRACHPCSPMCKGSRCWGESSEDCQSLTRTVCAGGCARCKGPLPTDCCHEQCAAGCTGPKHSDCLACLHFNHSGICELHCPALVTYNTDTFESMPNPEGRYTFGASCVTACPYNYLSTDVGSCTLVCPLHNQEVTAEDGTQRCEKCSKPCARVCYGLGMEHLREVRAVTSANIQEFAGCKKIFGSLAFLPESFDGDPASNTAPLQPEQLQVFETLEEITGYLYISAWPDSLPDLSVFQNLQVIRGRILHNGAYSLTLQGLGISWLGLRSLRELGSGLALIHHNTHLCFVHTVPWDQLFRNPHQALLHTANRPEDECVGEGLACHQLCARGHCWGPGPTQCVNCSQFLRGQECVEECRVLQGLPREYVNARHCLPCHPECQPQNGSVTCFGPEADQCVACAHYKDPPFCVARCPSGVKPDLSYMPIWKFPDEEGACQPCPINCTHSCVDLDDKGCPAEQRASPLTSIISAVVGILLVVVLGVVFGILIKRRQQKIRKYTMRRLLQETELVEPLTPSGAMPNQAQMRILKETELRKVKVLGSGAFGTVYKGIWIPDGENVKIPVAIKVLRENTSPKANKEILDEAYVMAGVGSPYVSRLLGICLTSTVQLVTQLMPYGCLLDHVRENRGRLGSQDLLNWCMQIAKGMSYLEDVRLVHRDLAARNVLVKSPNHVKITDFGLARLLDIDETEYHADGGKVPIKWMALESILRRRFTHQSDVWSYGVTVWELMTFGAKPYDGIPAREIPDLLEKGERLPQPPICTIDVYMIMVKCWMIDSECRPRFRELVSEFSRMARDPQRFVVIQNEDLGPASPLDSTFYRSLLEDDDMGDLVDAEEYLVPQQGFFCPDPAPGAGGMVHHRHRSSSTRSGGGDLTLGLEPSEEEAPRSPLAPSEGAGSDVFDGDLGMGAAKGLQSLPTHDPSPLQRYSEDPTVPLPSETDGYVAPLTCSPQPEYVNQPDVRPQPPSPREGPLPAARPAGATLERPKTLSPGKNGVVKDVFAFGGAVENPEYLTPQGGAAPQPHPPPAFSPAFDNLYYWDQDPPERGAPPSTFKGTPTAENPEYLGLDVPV
Method in brief: (§1)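 Initial rates over 0–3600 s, read as substrate-to-product conversion by capillary electrophoresis, were converted to percent inhibition and fitted with a variable-slope curve to give IC50. Conditions: EGFR WT 2 nM with 1 mM ATP; HER2 YVMA 5 nM or HER2 WT 12.5 nM, each with 25 μM ATP. All used 1 μM Peptide 22 in pH 7.5 HEPES/Mn/Mg buffer.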

EGFR WT = target: T3, EGFR WT (Homo sapiens, UniProt P00533); experiment: Enzymatic assay EGFR WT (method c); format: biochemical; settings: [EGFR WT]=2 nM, [ATP]=1 mM, [Peptide 22]=1 μM
T3 construct: purchased Thermo Fisher, Carlsbad, CA ERBB1 PR7295B
T3 sequence (P00533 25-1210): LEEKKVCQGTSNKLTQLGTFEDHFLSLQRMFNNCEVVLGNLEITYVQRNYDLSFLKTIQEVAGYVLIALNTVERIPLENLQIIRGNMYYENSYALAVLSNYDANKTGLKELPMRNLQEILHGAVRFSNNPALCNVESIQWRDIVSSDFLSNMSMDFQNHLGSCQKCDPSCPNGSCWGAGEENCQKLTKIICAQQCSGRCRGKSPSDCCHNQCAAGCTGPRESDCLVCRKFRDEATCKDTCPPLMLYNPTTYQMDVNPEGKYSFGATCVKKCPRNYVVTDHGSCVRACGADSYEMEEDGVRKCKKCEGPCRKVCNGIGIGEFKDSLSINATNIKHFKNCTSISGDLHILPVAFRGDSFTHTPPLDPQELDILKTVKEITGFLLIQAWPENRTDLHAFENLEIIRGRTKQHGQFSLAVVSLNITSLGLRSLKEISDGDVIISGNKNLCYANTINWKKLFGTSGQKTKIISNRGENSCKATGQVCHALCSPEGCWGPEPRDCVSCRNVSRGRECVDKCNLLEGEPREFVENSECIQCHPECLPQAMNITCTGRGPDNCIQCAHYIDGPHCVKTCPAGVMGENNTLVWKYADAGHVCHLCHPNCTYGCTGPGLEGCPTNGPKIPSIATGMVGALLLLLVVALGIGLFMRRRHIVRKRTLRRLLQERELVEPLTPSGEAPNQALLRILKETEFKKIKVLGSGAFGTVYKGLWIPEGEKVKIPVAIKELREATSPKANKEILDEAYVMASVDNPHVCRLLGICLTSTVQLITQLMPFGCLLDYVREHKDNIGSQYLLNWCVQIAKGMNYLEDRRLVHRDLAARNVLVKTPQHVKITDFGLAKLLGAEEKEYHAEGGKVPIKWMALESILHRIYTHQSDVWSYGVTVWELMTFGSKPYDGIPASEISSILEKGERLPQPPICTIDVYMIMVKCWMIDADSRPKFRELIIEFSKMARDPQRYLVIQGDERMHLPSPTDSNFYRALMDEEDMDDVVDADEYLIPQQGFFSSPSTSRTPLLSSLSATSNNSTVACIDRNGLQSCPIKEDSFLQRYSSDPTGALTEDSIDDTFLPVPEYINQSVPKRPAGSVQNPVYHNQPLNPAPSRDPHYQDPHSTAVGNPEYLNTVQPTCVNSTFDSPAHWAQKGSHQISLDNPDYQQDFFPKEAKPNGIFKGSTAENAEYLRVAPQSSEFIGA
Method in brief: as §1

T1 sequence (P04626 23-1255): as the sequence (P04626 23-1255) above

EC50 [1] [nM] | IC50 (HER2 WT) [nM] | IC50 (EGFR WT) [nM] | SMILES
< 100 | < 100 | > 10000 | Cc1ccc(Oc2ccc(Nc3ncnc4sc5c(c34)C(C)CN(C(=O)C=CCN(C)C)C5)cc2C)cn1 (single isomer, unassigned) [Compound 105]
< 100 | < 100 | > 10000 | Cc1ccc(Oc2ccc(Nc3ncnc4sc5c(c34)C(C)CN(C(=O)C=CCN(C)C)C5)cc2C)cn1 (single isomer, unassigned) [Compound 106]
< 100 | < 100 | 1000 to 10000 | Cc1cc(Nc2ncnc3sc4c(c23)CCN(C(=O)/C=C/CN(C)C)C4)ccc1Oc1ccc2ncnn2c1 [Compound 3, (E)-1-(4-((4-([1,2,4]triazolo[1,5-a]pyridin-6-yloxy)-3-methylphenyl)amino)-5,8-dihydropyrido[4′,3′:4,5]thieno[2,3-d]pyrimidin-7(6H)-yl)-4-(dimethylamino)but-2-en-1-one]
< 100 | < 100 | > 10000 | C=CC(=O)N1CCc2c(sc3ncnc(Nc4ccc(Oc5ccc6ncnn6c5)c(Cl)c4)c23)C1 [Compound 4, 1-(4-((4-([1,2,4]triazolo[1,5-a]pyridin-6-yloxy)-3-chlorophenyl)amino)-5,8-dihydropyrido[4′,3′:4,5]thieno[2,3-d]pyrimidin-7(6H)-yl)prop-2-en-1-one]
< 100 | < 100 | > 10000 | CN(C)C/C=C/C(=O)N1CCc2c(sc3ncnc(Nc4ccc(Oc5ccc6ncnn6c5)c(Cl)c4)c23)C1 [Compound 5, (E)-1-(4-((4-([1,2,4]triazolo[1,5-a]pyridin-6-yloxy)-3-chlorophenyl)amino)-5,8-dihydropyrido[4′,3′:4,5]thieno[2,3-d]pyrimidin-7(6H)-yl)-4-(dimethylamino)but-2-en-1-one]
< 100 | < 100 | 1000 to 10000 | Cc1cc(Nc2ncnc3sc4c(c23)CCN(C(=O)/C=C/CN2CC3CCC(C3)C2)C4)ccc1Oc1ccc2ncnn2c1 [Compound 20]
< 100 | 100 to 1000 | > 10000 | Cc1ncc(Oc2ccc(Nc3ncnc4sc5c(c34)CCN(C(=O)/C=C/CN(C)C)C5)cc2C)cn1 [Compound 21, (E)-4-(dimethylamino)-1-(4-((3-methyl-4-((2-methylpyrimidin-5-yl)oxy)phenyl)amino)-5,8-dihydropyrido[4′,3′:4,5]thieno[2,3-d]pyrimidin-7(6H)-yl)but-2-en-1-one]
< 100 | < 100 | 1000 to 10000 | Cc1cc(Nc2ncnc3sc4c(c23)CCN(C(=O)/C=C/CN(C)C)C4)ccc1Oc1ccc2[nH]ncc2c1 [Compound 22, (E)-1-(4-((4-((1H-indazol-5-yl)oxy)-3-methylphenyl)amino)-5,8-dihydropyrido[4′,3′:4,5]thieno[2,3-d]pyrimidin-7(6H)-yl)-4-(dimethylamino)but-2-en-1-one]
< 100 | < 100 | 1000 to 10000 | Cc1cc(Nc2ncnc3sc4c(c23)CCN(C(=O)/C=C/CN(C)C)C4)ccc1Oc1ccc2cn[nH]c2c1 [Compound 23, (E)-1-(4-((4-((1H-indazol-6-yl)oxy)-3-methylphenyl)amino)-5,8-dihydropyrido[4′,3′:4,5]thieno[2,3-d]pyrimidin-7(6H)-yl)-4-(dimethylamino)but-2-en-1-one]
< 100 | < 100 | > 10000 | Cc1ccc(Oc2ccc(Nc3ncnc4sc5c(c34)CCN(C(=O)/C=C/CN3CC4CC3CO4)C5)cc2C)cn1 (stereo not drawn) [Compound 26]
< 100 | < 100 | > 10000 | Cc1ccc(Oc2ccc(Nc3ncnc4sc5c(c34)CCN(C(=O)/C=C/CN(C)C(C)(C)C)C5)cc2C)cn1 [Compound 33]
< 100 | < 100 | > 10000 | Cc1ccc(Oc2ccc(Nc3ncnc4sc5c(c34)CCN(C(=O)/C=C/CN3CC4C(CO)C4C3)C5)cc2C)cn1 (stereo not drawn) [Compound 34]
< 100 | < 100 | 1000 to 10000 | Cc1ccc(Oc2ccc(Nc3ncnc4sc5c(c34)CCN(C(=O)/C=C/CN(CCO)CCO)C5)cc2C)cn1 [Compound 37]
< 100 | < 100 | > 10000 | Cc1ccc(Oc2ccc(Nc3ncnc4sc5c(c34)CCN(C(=O)/C=C/CNC3COC3)C5)cc2C)cn1 [Compound 38]
100 to 350 | < 100 | > 10000 | CNC(=O)CNC/C=C/C(=O)N1CCc2c(sc3ncnc(Nc4ccc(Oc5ccc(C)nc5)c(C)c4)c23)C1 [Compound 39]
< 100 | < 100 | 1000 to 10000 | Cc1ccc(Oc2ccc(Nc3ncnc4sc5c(c34)CCN(C(=O)/C=C/CNC3CC3)C5)cc2C)cn1 [Compound 40]
< 100 | < 100 | 1000 to 10000 | Cc1ccc(Oc2ccc(Nc3ncnc4sc5c(c34)CCN(C(=O)/C=C/CN3CCCC3C(N)=O)C5)cc2C)cn1 (stereo not drawn) [Compound 41]
< 100 | < 100 | > 10000 | Cc1ccc(Oc2ccc(Nc3ncnc4sc5c(c34)CCN(C(=O)/C=C/CN3CCCOCC3)C5)cc2C)cn1 [Compound 42]

EC50 [1] [nM] | IC50 (HER2 WT) [nM] | IC50 (EGFR WT) [nM] | SMILES
350 to 1000 | 100 to 1000 | > 10000 | Cc1ccc(Oc2ccc(Nc3ncnc4sc5c(c34)CCN(C(=O)/C=C/CN3CC(O)CO3)C5)cc2C)cn1 (stereo not drawn) [Compound 43]
< 100 | < 100 | > 10000 | Cc1ccc(Oc2ccc(Nc3ncnc4sc5c(c34)CCN(C(=O)/C=C/CNCCS(C)(=O)=O)C5)cc2C)cn1 [Compound 45]
< 100 | 100 to 1000 | > 10000 | CCN1CCN(C/C=C/C(=O)N2CCc3c(sc4ncnc(Nc5ccc(Oc6ccc(C)nc6)c(C)c5)c34)C2)CC1 [Compound 46]
< 100 | < 100 | 1000 to 10000 | Cc1ccc(Oc2ccc(Nc3ncnc4sc5c(c34)CCN(C(=O)/C=C/CNC3CCOC3)C5)cc2C)cn1 (stereo not drawn) [Compound 47]
< 100 | < 100 | > 10000 | Cc1ccc(Oc2ccc(Nc3ncnc4sc5c(c34)CCN(C(=O)/C=C/CNCC3CN(C)CCO3)C5)cc2C)cn1 (stereo not drawn) [Compound 48]
< 100 | < 100 | 1000 to 10000 | Cc1ccc(Oc2ccc(Nc3ncnc4sc5c(c34)CCN(C(=O)/C=C/CNCc3cc(C)n[nH]3)C5)cc2C)cn1 [Compound 49]
100 to 350 | < 100 | > 10000 | CC(=O)N1CCN(C/C=C/C(=O)N2CCc3c(sc4ncnc(Nc5ccc(Oc6ccc(C)nc6)c(C)c5)c34)C2)CC1 [Compound 51]
< 100 | < 100 | 1000 to 10000 | Cc1ccc(Oc2ccc(Nc3ncnc4sc5c(c34)CCN(C(=O)/C=C/CNCc3ccsc3)C5)cc2C)cn1 [Compound 52]
< 100 | < 100 | > 10000 | Cc1ccc(Oc2ccc(Nc3ncnc4sc5c(c34)CCN(C(=O)/C=C/CN3CC(O)C3)C5)cc2C)cn1 [Compound 53]
< 100 | < 100 | > 10000 | Cc1ccc(Oc2ccc(Nc3ncnc4sc5c(c34)CCN(C(=O)/C=C/CNC3CCC3)C5)cc2C)cn1 [Compound 54]
< 100 | < 100 | > 10000 | Cc1ccc(Oc2ccc(Nc3ncnc4sc5c(c34)CCN(C(=O)/C=C/CN3CC=CCC3)C5)cc2C)cn1 [Compound 55]
350 to 1000 | 100 to 1000 | > 10000 | CON(C)C/C=C/C(=O)N1CCc2c(sc3ncnc(Nc4ccc(Oc5ccc(C)nc5)c(C)c4)c23)C1 [Compound 56]
< 100 | < 100 | > 10000 | Cc1ccc(Oc2ccc(Nc3ncnc4sc5c(c34)CCN(C(=O)/C=C/CN3CC4(C3)CS(=O)(=O)C4)C5)cc2C)cn1 [Compound 57]
100 to 350 | 100 to 1000 | > 10000 | Cc1ccc(Oc2ccc(Nc3ncnc4sc5c(c34)CCN(C(=O)/C=C/CN3CCN4C(=O)CCC4C3)C5)cc2C)cn1 (stereo not drawn) [Compound 58]
< 100 | < 100 | > 10000 | COCCN1CCN(C/C=C/C(=O)N2CCc3c(sc4ncnc(Nc5ccc(Oc6ccc(C)nc6)c(C)c5)c34)C2)CC1 [Compound 59]
350 to 1000 | 1000 to 10000 | > 10000 | Cc1ccc(Oc2ccc(Nc3ncnc4sc5c(c34)CCN(C(=O)/C=C/CN3CCn4cc(C(F)(F)F)nc4C3)C5)cc2C)cn1 [Compound 61]
< 100 | < 100 | > 10000 | Cc1ccc(Oc2ccc(Nc3ncnc4sc5c(c34)CCN(C(=O)/C=C/CN3CCC(n4ccnc4)CC3)C5)cc2C)cn1 [Compound 62]
< 100 | < 100 | 1000 to 10000 | Cc1cc(Nc2ncnc3sc4c(c23)CCN(C(=O)/C=C/CN(C)C)C4)ccc1Oc1cccc(B(O)O)c1 [Compound 64, (E)-(3-(4-((7-(4-(dimethylamino)but-2-enoyl)-5,6,7,8-tetrahydropyrido[4′,3′:4,5]thieno[2,3-d]pyrimidin-4-yl)amino)-2-methylphenoxy)phenyl)boronic acid]

SMILES | EC50 [1] [nM] | IC50 (HER2 WT) [nM] | IC50 (EGFR WT) [nM]
Cc1ccc(Oc2ccc(Nc3ncnc4sc5c(c34)CCN(C(=O)/C=C/CN3C4CCC3CC4)C5)cc2C)cn1 [Compound 44] | < 100 | < 100 | 1000 to 10000
